Reference: paper PMC3070735, “Uremic Toxins Inhibit Transport by Breast Cancer Resistance Protein and Multidrug Resistance Protein 4 at Clinically Relevant Concentrations” (PLoS ONE, 2011)
Structures can show the parent of a compound that is named as a salt.

Key:
[1] = Plasma concentrations of uremic toxins in CRF and ESRD patients and healthy controls (HPLC, LC/MS-MS); assay type: in vivo, human
Description: Blood samples were obtained from 4 patients with chronic renal failure (CRF) during regular check-up, 6 patients with end-stage renal disease (ESRD) before hemodialysis and 4 healthy controls. None of the subjects had been fasting at the time of blood sampling. Blood was collected in an EDTA Vacutainer and was immediately centrifuged at 3,000 x g for 10 min. Subsequently, plasma was collected and stored at −20°C. Before chromatography an aliquot of plasma was diluted in H2O (1∶1) and deproteinized with perchloric acid (final concentration 3.3% (v/v)). Next, samples were centrifuged at 12,000 x g for 3 min and 50 µl of the supernatant was injected into the HPLC-system (Spectra-Physics Analytical, Spectrasystem SCM400). […] Separation was performed at a flow rate of 1 ml/min with eluent A (95% (v/v) H2O, 5% (v/v) acetonitril and 0.1% (v/v) heptafluorobutyric acid) and eluent B (50% (v/v) H2O, 50% (v/v) acetonitrile and 0.1% (v/v) heptafluorobutyric acid) under the following gradient conditions: 0–1 min, 100% eluent A; 1–15 min, 100–25% eluent A; 15–17 min, 25% eluent A; 17–18 min, […]; 18–23 min, 100% eluent A. The compounds were detected at a wavelength of 230 nm. For the detection of phenylacetic acid, chromatography was performed on a C18 HPLC column (Polaris 3 C18-A 150×4.6 mm; Varian, Middelburg, the Netherlands) with eluent A (97% (v/v) 50 mM sodium phosphate buffer [pH 6.5] and 3% (v/v) methanol) and eluent B (50% (v/v) H2O, 49% (v/v) acetonitrile and 1% (v/v) tetrahydrofuran) using the following gradient: 0–1 min, 100% eluent A; 1–15 min, 100–90% eluent A; 15–18 min, 10–100% eluent B; 18–22 min, 100% eluent B; 22–25 min, 0–100% eluent A; 25–30 min, 100% eluent A. The flow rate was 1 ml/min and phenylacetic acid was measured at a wavelength of 215 nm. Standards of the compounds were also run in order to quantify the amount of toxins found in the samples. Acquired data were processed with PC1000 software (Spectrasystem).
To determine the levels of kynurenic acid, blood was collected from CRF patients and processed as described above. Subsequently, 10 µl of the clear supernatant was injected into the LC/MS-MS system that consisted of an Accela HPLC system (Thermo scientific, Breda, the Netherlands) equipped with a C18 HPLC column (VisionHT C18 B 100×2 mm, 1.5 µm; Grace). Separation was performed at a flow rate of 150 µl/min with eluent A (5 mM ammonium formate+0.01% (v/v) trifluoroacetic acid) and eluent B (50% acetonitrile) under the following gradient conditions: 0–10 min, 98–50% eluent A; 10–15 min, 50% eluent A; 15–16 min, 50–98% eluent A; 16–21 min, 98% eluent A. The fractions eluted were directly passed through a TSQ Vantage tandem mass spectrometer (Thermo scientific) equipped with an electro-spray ionization source operating in the positive ion mode. The ion spray voltage was 4 kV, source temperature was 350°C and collision gas pressure was 1.5 bar. Kynurinic acid and the internal standard 1-methyl-tryptophan were quantified by selected reaction monitoring (SRM). […] Acquired data were processed with Thermo Xcaliber software (Thermo scientific).

[2] = Uremic plasma concentrations (Cu, Cmax) in CKD patients from the EUTox database and literature; assay type: in vivo, human; conditions: calculated as Cmax = Cu + 2 SD; read-out: Hypothetical Cmax
Description: The calculated Ki and IC20 values were compared with the mean plasma concentrations measured in ESRD patients during this study (Cm), the highest mean/median (Cu) and the highest maximal plasma concentrations (Cmax) measured in the literature in patients with CKD are also shown. The IC20 value was used since we believe that a 20% decrease in transport can already have a clinical impact. The Cu and Cmax values were obtained from the online database of the European Uremic Toxin (EUTox) Work Group (www.uremic-toxins.org; [19]), unless stated otherwise.

[3] = CRF patients (n = 4), total plasma
[4] = ESRD patients (n = 6), total plasma
[5] = healthy controls (n = 4), total plasma

Structure (SMILES) | Cm, mean plasma concentration determined in this study ([1]; human, in vivo) | Mean plasma concentration [1, 3] | Cm, mean plasma concentration determined in this study [1, 4] | Mean plasma concentration [1, 5] | further results
O=C(O)Cc1c[nH]c2ccccc12 [indole-3-acetic acid] | 4 µM |  |  |  | 
O=S(=O)(O)Oc1c[nH]c2ccccc12 [indoxyl sulfate] |  | 65 µM | 129 µM | 13 µM | 
O=C(O)CNC(=O)c1ccccc1 [hippuric acid] | 160 µM |  |  |  | 
O=C(O)Cc1ccccc1 [phenylacetic acid] |  | 4 µM | 18 µM | 5 µM | Maximum plasma concentration ([1]; CRF patients): 9 µM; Maximum plasma concentration ([1]; ESRD patients): 83 µM; Cmax [2]: 7700 µM
O=C(O)c1cc(=O)c2ccccc2[nH]1 [kynurenic acid] | 1 µM |  |  |  | 
